Assay [1] relates to A431 cells. Put plainly: MTT cell viability assay, A431. In kind it is cell-based. Conditions: Homo sapiens, A-431, A431, 48 h treatment. On the procedure:
(§1) Spontaneously immortalized human keratinocyte HaCaT cells were purchased from Cell Lines Service (CLS, Eppelheim, Germany). Human epidermoid carcinoma A431 cells were obtained from Deutsche Sammlung von Mikroorganismen und Zellkulturen (DSMZ, Braunschweig, Germany). MCF7 (ECACC 86012803) and MCF12A (ECACC10782) cells were purchased from the European Collection of Cell Cultures (Salisbury, Wiltshire, UK). MCF12A cells were cultured in 95% 1:1 mixture of DMEM and Ham’s F12 medium, 20 ng/mL human epidermal growth factor, 500 ng/mL hydrocortisone and 5% horse serum. The other cell lines were cultured in Dulbecco’s modified Eagle’s medium (DMEM) supplemented with 10% fetal bovine serum and 1% (v/v) antibiotics solution. Cells were incubated at 37 °C in an atmosphere consisting of 95% air and 5% CO2 in a humidified incubator until they reached 70% confluency. 1 × 10^6 cells were seeded in 40 mm ø culture dishes. After 24 h of preincubation in DMEM containing 5% of FBS, the cells were treated with resveratrol or its analogs, and the incubation was continued for a subsequent 24 h to assess apoptosis or cell cycle distribution. Then, the cells were harvested. Control cells were treated with DMSO, at a concentration of less than 0.1%.
(§2) The effect of resveratrol and 4′-methylthiostilbenes on cell viability was assessed with MTT assay according to the standard protocol described earlier (Zielińska-Przyjemska et al. [2015]). Briefly, the cells were seeded in 96-well plates at a density of 1 × 10^4 cells/well in 100 μL of growth medium. They were allowed to attach overnight and either resveratrol or the appropriate analog was then added to the culture medium at various concentrations (0–200 μM) for 48 h at 37 °C. The cells were subsequently incubated with MTT (0.5 mg/mL) solution for another 4 h. The water insoluble formazan crystals were solubilized in acidic isopropanol before the measurement of absorbance using a microplate reader (TECAN Infinite M200, TK Biotech, Warsaw, Poland) at 540 and 690 nm. All of the experiments were repeated three times, with at least three measurements per assay.
In general terms: Formazan colour is commonly taken as a measure of viable cells.

Assay [2] concerns HaCaT cells. Description: MTT cell viability assay, HaCaT. In kind it is cell-based. Conditions: Homo sapiens, 48 h treatment. The procedure:
as §1, §2

The subject of assay [3] is MCF7 cells. Description: MTT cell viability assay, MCF7. Type of assay: cell-based, human. Conditions: MCF7, 48 h treatment. On the procedure:
as §1, §2

Assay [4] deals with MCF12A cells. Put plainly: MTT cell viability assay, MCF12A. Conditions: Homo sapiens, MCF-12A, 48 h treatment. In kind it is cell-based. The procedure: as §1, §2
Assay [5] relates to MCF12A, MCF7, HaCaT and A431 cell lines. Description: TUNEL assay. Type of assay: cell-based, human. Conditions: 24 h incubation, versus control. The procedure: as §1
TUNEL assay was applied to detect apoptotic cells using In Situ Cell Death Detection Kit (Roche Diagnostics, Indianapolis, IN, USA). Briefly, after incubation with the test compounds for 24 h, the cells were detached with a 0.5% trypsin–EDTA solution and collected. Cell suspensions were fixed with 4% paraformaldehyde and permeabilized with 0.1% Triton X-100 in 0.1% sodium citrate. After the TUNEL reaction mixture was added, cells were incubated for 1 h at 37 °C in a humidified chamber and samples were analyzed by FACSCanto Flow Cytometer (Becton–Dickinson). Camptothecin at a final concentration of 50 nM was used as a positive control.

Assay [6] has as its system MCF7 cells. Description: Flow cytometry cell cycle analysis, MCF7. Conditions: MCF7, 24 h incubation, PI flow cytometry. Type of assay: cell-based, human. The procedure:
as §1
(§3) The cells harvested after a 24 h incubation with the test compounds were washed with 1 mL of PBS and fixed with 70% ethanol. The ethanol was added dropwise to the cell pellet while vortexing to ensure fixation of all cells and minimizing clumping. After a 30 min incubation, the cells were washed twice in PBS, and 250 µL of a solution containing 50 µg/mL PI, 100 µg/mL RNase A (Sigma, St. Louis, MO, USA) in PBS was added to the pellet and incubated for 30 min at 37 °C in the dark. The stained cells were analyzed by FACSCanto Flow Cytometer (Becton–Dickinson). Camptothecin at a final concentration of 50 nM was used as a positive control. Data analysis and acquisition were performed using FACS Diva software (Becton–Dickinson).
A general note: Flow cytometry measures light scatter and fluorescence of single cells or particles in a stream.

Assay [7] addresses T1, purified porcine tubulin (Sus scrofa, UniProt P02554).
T1 construct: purified porcine tubulin purchased from Cytoskeleton Inc; purchased Cytoskeleton Inc. (Denver, CO, USA)
Description: Tubulin polymerization assay in vitro. In kind it is biochemical. Conditions: absorbance at steady state. On the procedure:
Tubulin polymerization was assessed with the use of purified porcine tubulin purchased from Cytoskeleton Inc. (Denver, CO, USA) in accordance with a protocol recommended by the manufacturer. Tubulin was dissolved in a buffer containing: 80 mM PIPES pH 6.9, 2 mM MgCl2, 0.5 mM EGTA and 1 mM GTP, at a final concentration of 3 mg/mL and placed in a 96-well plate (0.3 mg per well). The polymerization reaction was started by increasing temperature from 4 to 37 °C upon transfer of the reaction mixture to a pre-warmed plate. The assembly of microtubules was monitored spectrophotometrically by measuring absorbance at 350 nm for 60 min, at a temperature of 37 °C. Paclitaxel was used as stabilizing positive control.

Assay [8] deals with MCF12A, MCF7, HaCaT and A431 cell lines. Put plainly: Annexin-V/propidium iodide assay. Conditions: 24 h incubation, all four cell lines. Type of assay: cell-based, human. On the procedure:
as §1
Apoptosis and necrosis were detected using Annexin-V-FLUOS Staining Kit assay (Roche Diagnostics GmbH, Mannheim, Germany), according to the manufacturer’s instruction. After have been treated with test compounds for 24 h, the cells were transferred (1 × 10^6 cells in 100 µL of the solution) into 5 mL culture tubes followed by the addition of 2 µL of Annexin-V-Fluos and 2 µL PI. Camptothecin at a final concentration of 50 nM was used as a positive control. Samples were gently mixed and incubated for 15 min at RT (25 °C) in the dark. Fluorescence of cell surface (AV) and DNA-bound PI markers was analyzed with flow cytometry (Becton–Dickinson, San Jose, CA, USA) at 488 nm excitation wavelength, emission 518 and 617 nm for AV and PI, respectively.

In assay [9] the test system is MCF12A cells. Description: Flow cytometry cell cycle analysis, MCF12A. Type of assay: cell-based, human. Conditions: 24 h incubation, PI flow cytometry. The procedure: as §1, §3
Assay [10] deals with A431 cells. Description: Flow cytometry cell cycle analysis, A431. In kind it is cell-based, human. Conditions: A431, 24 h incubation, PI flow cytometry. The procedure: as §1, with “Control cells were treated with DMSO, at a concentration of less than 0.1%.” left out
(§4) The cells harvested after a 24 h incubation with the test compounds were washed with 1 mL of PBS and fixed with 70% ethanol. […] The stained cells were analyzed by FACSCanto Flow Cytometer (Becton–Dickinson). […]

Assay [11] relates to MCF7 cells. The arrangement: method as in Androutsopoulos et al. [2011]. Conditions: 96 h exposure; ref Androutsopoulos et al. [2011]; cited from earlier work.
For assay [12], the system named is tubulin. Details: method as in Ma and coworkers ([2008]). Conditions: ref Ma and coworkers ([2008]), cited from earlier work.
Assay [13] concerns HaCaT cells. Description: Flow cytometry cell cycle analysis, HaCaT. Conditions: 24 h incubation, PI flow cytometry. Type of assay: cell-based, human. On the procedure: as §1, with “Control cells were treated with DMSO, at a concentration of less than 0.1%.” left out
as §4

The structures appear in SMILES notation. Where “and” joins values, the source holds several entries; their conditions need not be identical. Identical values can stand only once.

T1 sequence (P02554 whole entry): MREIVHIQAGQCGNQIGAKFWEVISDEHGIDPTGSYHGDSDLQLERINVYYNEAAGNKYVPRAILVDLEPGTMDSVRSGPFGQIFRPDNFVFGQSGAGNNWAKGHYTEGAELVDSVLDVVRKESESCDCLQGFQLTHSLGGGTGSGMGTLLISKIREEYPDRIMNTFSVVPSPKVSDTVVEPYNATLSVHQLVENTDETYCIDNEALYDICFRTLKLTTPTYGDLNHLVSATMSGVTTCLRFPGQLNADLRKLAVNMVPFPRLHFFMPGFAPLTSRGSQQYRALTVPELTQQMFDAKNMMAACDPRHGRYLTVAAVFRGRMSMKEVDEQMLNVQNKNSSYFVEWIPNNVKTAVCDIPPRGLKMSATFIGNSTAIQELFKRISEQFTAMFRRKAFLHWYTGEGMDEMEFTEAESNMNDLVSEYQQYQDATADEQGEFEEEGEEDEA
T1 sequence (P02550 whole entry partner): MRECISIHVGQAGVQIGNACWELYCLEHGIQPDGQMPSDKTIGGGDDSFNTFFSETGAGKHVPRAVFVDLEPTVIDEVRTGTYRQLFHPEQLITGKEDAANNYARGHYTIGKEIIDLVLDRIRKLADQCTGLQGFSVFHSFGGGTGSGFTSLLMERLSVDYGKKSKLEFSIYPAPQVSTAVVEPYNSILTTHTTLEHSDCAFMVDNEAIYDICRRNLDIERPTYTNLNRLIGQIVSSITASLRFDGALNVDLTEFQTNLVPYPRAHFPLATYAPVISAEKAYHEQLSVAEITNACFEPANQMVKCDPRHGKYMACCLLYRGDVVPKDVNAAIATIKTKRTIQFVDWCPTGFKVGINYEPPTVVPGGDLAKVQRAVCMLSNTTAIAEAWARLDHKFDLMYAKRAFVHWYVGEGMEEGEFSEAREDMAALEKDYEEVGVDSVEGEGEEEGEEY

As to `COc1cccc(/C=C/c2ccc(SC)cc2)c1OC` [2,3-Dimethoxy-4′-methylthio-trans-stilbene], the IC50 (in general, the point on the concentration scale where inhibition reaches its midpoint) in assay [1] came to 157 ± 3 µM; in assay [2], 51.8 ± 7.3 µM; in assay [3] (Homo sapiens, MCF7, 48 h) it was 10.6 ± 6.1 µM.

Take `COc1cc(OC)c(OC)cc1/C=C/c1ccc(SC)cc1` [2,4,5-MTS, 2,4,5-Trimethoxy-4′-methylthio-trans-stilbene]: the half-inhibitory concentration (IC50) in assay [4] came to 10 ± 3 µM; in assay [1], 22.6 ± 7.2 µM; in assay [2], 50.9 ± 13.3 µM; in assay [3] (Homo sapiens, MCF7, 48 h) it was 5.1 ± 1.4 µM. The “Number of TUNEL positive cells” value in assay [5] is “statistically significant increase in the number of TUNEL positive cells was observed only in HaCaT and A431”. Besides, the Cell cycle effect entry in assay [6] and in [9] was “G0/G1 phase arrest” in each case. Further, the “Tubulin polymerization, steady state level” value in assay [7] (5 µM compound) is 106.3 ± 4.2 % of control; in [7] (10 µM compound) it was 123.2 % of control and 123.2 ± 4.5 % of control. Also, the “Apoptosis induction (Annexin-V/PI)” value in assay [8] is “induced apoptosis in all the cell lines”.

Take `COc1ccc(OC)c(/C=C/c2ccc(SC)cc2)c1` [2,5-Dimethoxy-4′-methylthio-trans-stilbene]: the concentration for half-maximal inhibition (IC50) in [1] was 47.1 ± 9 µM; in assay [2], 65 ± 24.5 µM; in assay [3] (Homo sapiens, MCF7, 48 h), 10.2 ± 6.6 µM.

Take `COc1ccccc1/C=C/c1ccc(SC)cc1` [2-Methoxy-4′-methylthio-trans-stilbene]: the IC50 amounted to 241 ± 10 µM in assay [1]; 106 ± 9.3 µM in [2]; 27.3 ± 12.4 µM in assay [3] (Homo sapiens, MCF7, 48 h).

Consider `COc1cc(/C=C/c2ccc(SC)cc2)cc(OC)c1OC` [3,4,5-MTS, 3,4,5-Trimethoxy-4′-methylthio-trans-stilbene], for which the IC50 in assay [4] came to 25.7 ± 4.3 µM; in assay [1], 19.3 ± 5.5 µM; in assay [2], 10 ± 4.6 µM; in assay [3] (Homo sapiens, MCF7, 48 h), 2.07 µM; in assay [3], 2.1 ± 0.4 µM. In assay [5], the “Number of TUNEL positive cells” value was “statistically significant increase in the number of TUNEL positive cells was observed only in HaCaT and A431”. The Cell cycle effect result in assay [6], in [10] and in assay [9] was “G2/M phase arrest” in each case. Also, the “Tubulin polymerization, steady state level” value is 113.4 ± 3.6 % of control in assay [7] (5 µM compound); 132.9 % of control and 132.9 ± 17.1 % of control in assay [7] (10 µM compound). For the same molecule, in assay [8], the “Apoptosis induction (Annexin-V/PI)” value is on record as “induced apoptosis in all the cell lines”.

For the molecule `COc1cc(/C=C/c2ccc(SC)cc2)cc(OC)c1` [3,5-Dimethoxy-4′-methylthio-trans-stilbene], the IC50 was 45.4 ± 7.2 µM in assay [1]; 25.4 ± 13.9 µM in assay [2]; 4.8 ± 3.4 µM in [3] (Homo sapiens, MCF7, 48 h).

On to `COc1cccc(/C=C/c2ccc(SC)cc2)c1` [3-Methoxy-4′-methylthio-trans-stilbene], for which the IC50 turned out to be 141 ± 2.8 µM in assay [1]; 183 ± 38.7 µM in assay [2]; 6.6 ± 3.7 µM in [3] (Homo sapiens, MCF7, 48 h).

Take `COc1ccc(/C=C/c2cc(OC)c(OC)c(OC)c2)cc1` [DMU-212, 3,4,5,4′-trans-tetramethoxystilbene]: in [11], the “Toxicity in MCF7 cells” value is listed as “submicromolar toxicity”. The “Effect on microtubule polymerization” value in [12] (DMU-212 at 2.5 μM versus paclitaxel at 10 μM) is reported as “comparable to that of paclitaxel”.

Take `CC(=O)O[C@H]1C(=O)[C@@]2(C)[C@H]([C@H](OC(=O)c3ccccc3)[C@]3(O)C[C@H](OC(=O)[C@H](O)[C@@H](NC(=O)c4ccccc4)c4ccccc4)C(C)=C1C3(C)C)[C@]1(OC(C)=O)CO[C@@H]1C[C@@H]2O` [Paclitaxel, reference compound]: in assay [7] (10 µM compound), the “Tubulin polymerization, steady state level” value was 142.3 % of control and 142.3 ± 9.2 % of control.

On to `Oc1ccc(/C=C/c2cc(O)cc(O)c2)cc1` [Resveratrol, trans-3,4′,5-trihydroxystilbene], for which the IC50 in assay [4] is 93.5 ± 12.1 µM; in assay [1] it was 49.4 ± 3.8 µM; in assay [2], 85.2 ± 29.2 µM; in assay [3] (Homo sapiens, MCF7, 48 h), 24.6 ± 3.8 µM. Moreover, the “Number of TUNEL positive cells” value in assay [5] is reported as “statistically significant in all the cell lines studied”. The Cell cycle effect result in [6] was “blocked the cell cycle in S-phase”; in [10] it was “blocked the cell cycle in S-phase”; in assay [9], “blocked the cell cycle in S-phase”; in assay [13] it was “arrested in G0/G1-phase”. The “Apoptosis induction (Annexin-V/PI)” value in assay [8] is reported as “apoptosis was evident in all the tested cell lines”. Besides, the “Effect on tubulin polymerization” value in assay [12] was “does not influence tubulin polymerization”.
